We go through 42 compounds from patent US6677488B2, “Substituted biphenyl compounds for the treatment of inflammation” (G.D. Searle & Co., priority 1995, dated 2004).

The structures appear in SMILES notation.

In general, melting point refers to the temperature of the solid-liquid transition. `CS(=O)(=O)c1ccc(-c2cc(Cl)c(Cl)cc2-c2ccc(F)cc2)cc1` [Example 44, 1,2-Dichloro-4-(4-fluorophenyl)-5-[4-(methylsulfonyl)phenyl]benzene] yielded a melting point of 143.5 to 144.5 °C.
As to `COc1ccc(-c2cc(F)c(F)cc2-c2ccc(S(N)(=O)=O)cc2)cc1C` [Example 39, 4-[4,5-Difluoro-2-(4-methoxy-3-methylphenyl)phenyl]benzenesulfonamide], the melting point was 120 to 121.8 °C.
For the compound `Cc1cc(-c2cc(F)c(F)cc2-c2ccc(S(C)(=O)=O)cc2)ccc1Cl` [Example 32, 4-(4-Chloro-3-methylphenyl)-1,2-difluoro-5-[4-(methylsulfonyl)phenyl]benzene], the melting point is 151.5 to 152.2 °C.
`NS(=O)(=O)c1ccc(-c2ccccc2-c2ccc(F)c(Cl)c2)cc1` [Example 12, 4-[2-(3-Chloro-4-fluorophenyl)phenyl]benzenesulfonamide] displayed a melting point of 192.5 to 193.2 °C.
The result for `NS(=O)(=O)c1ccc(-c2cc3c(cc2-c2ccc(F)cc2)OCO3)cc1` [Example 22, 4-[6-(4-Fluorophenyl)-1,3-benzodioxol-5-yl]benzenesulfonamide] reads 191 to 192.5 °C.
The result for `Cc1ccc(-c2cc(F)c(F)cc2-c2ccc(S(C)(=O)=O)cc2)cc1Cl` [Example 27, 1-(3-Chloro-4-methylphenyl)-4,5-difluoro-2-[4-(methylsulfonyl)phenyl]benzene] reads 138 to 139 °C; that for `CS(=O)(=O)c1ccc(-c2cc(F)c(F)cc2-c2ccc3c(c2)OCO3)cc1` [Example 24, 5-[4,5-Difluoro-2-[4-(methylsulfonyl)phenyl]phenyl]-1,3-benzodioxole], 110 to 111 °C.
The compound `CS(=O)(=O)c1ccc(-c2ccccc2-c2ccc(F)cc2)cc1` [Example 1, 1-(4-Fluorophenyl)-2-[4-(methylsulfonyl)phenyl]benzene] gave a melting point of 178 to 179 °C.
The result for `COc1ccc(-c2cc(F)c(F)cc2-c2ccc(S(C)(=O)=O)cc2)cc1OC` [Example 40, 1,2-Difluoro-4-(3,4-dimethoxypheny)-5-[4-(methylsulfonyl)phenyl]benzene] reads 140 to 141 °C.
The compound `Cc1ccc(-c2cc(F)c(F)cc2-c2ccc(S(N)(=O)=O)cc2)cc1` [Example 25, 4-[4,5-Difluoro-2-(4-methylphenyl)phenyl]benzenesulfonamide] came in with a melting point of 103 to 104 °C.
`COc1c(Cl)cc(-c2cc(F)c(F)cc2-c2ccc(S(N)(=O)=O)cc2)cc1Cl` [Example 38, 4-[2-(3,5-Dichloro-4-methoxyphenyl)-4,5-difluorophenyl]benzenesulfonamide] displayed a melting point of 145.5 to 146 °C.
In the case of `CS(=O)(=O)c1ccc(-c2ccccc2-c2ccc(F)c(Cl)c2)cc1` [Example 10, 2-Chloro-1-fluoro-4-[2-[4-(methylsulfonyl)phenyl]phenyl]benzene], the melting point is 179.5 to 181.1 °C.
Consider `COc1ccc(-c2ccccc2-c2ccc(S(N)(=O)=O)cc2)cc1F` [Example 6, 4-[2-(3-Fluoro-4-methoxyphenyl)phenyl]benzenesulfonamide], for which the melting point was 143.5 to 145.5 °C (dec.).
`NS(=O)(=O)c1ccc(-c2cc(F)c(F)cc2-c2ccc(F)c(Cl)c2)cc1` [Example 16, 4-[2-(3-Chloro-4-fluorophenyl)-4,5-difluorophenyl]benzenesulfonamide] registered a melting point of 162.5 to 162.8 °C.
The result for `CN(C)c1ccc(-c2cc(F)c(F)cc2-c2ccc(S(N)(=O)=O)cc2)cc1Cl` [Example 30, 4-[2-[3-Chloro-4-(N,N-dimethylamino)phenyl]-4,5-difluorophenyl]benzenesulfonamide] reads 193 to 194 °C; that for `Cc1ccc(-c2cc(F)c(F)cc2-c2ccc(S(N)(=O)=O)cc2)cn1` [Example 48, 4-[4,5-Difluoro-2-(6-methylpyridin-3-yl)phenyl]benzenesulfonamide], > 96 °C (dec.); that for `NS(=O)(=O)c1ccc(-c2c(F)c(F)c(F)c(F)c2-c2ccc(F)cc2)cc1` [Example 15, 4-[2,3,4,5-Tetrafluoro-6-(4-fluorophenyl)phenyl]benzenesulfonamide], 202 to 203 °C.
The result for `NS(=O)(=O)c1ccc(-c2cc(F)c(F)cc2-c2ccc3c(c2)OCO3)cc1` [Example 26, 4-[2-(1,3-Benzodioxol-5-yl)-4,5-difluorophenyl]benzenesulfonamide] reads 142 to 143 °C.
The compound `Cc1cc(-c2cc(F)c(F)cc2-c2ccc(S(N)(=O)=O)cc2)ccc1F` [Example 34, 4-[4,5-Difluoro-2-(4-fluoro-3-methylphenyl)phenyl)benzenesulfonamide] showed a melting point of 151.5 to 152 °C.
The result for `Cc1ccc(-c2cc(F)c(F)cc2-c2ccc(S(N)(=O)=O)cc2)cc1C` [Example 37, 4-[4,5-Difluoro-2-(3,4-dimethylphenyl)phenyl]benzenesulfonamide] reads 132.8 to 133.9 °C; that for `CS(=O)(=O)c1ccc(-c2cc(F)c(F)cc2-c2ccc(F)c(Cl)c2)cc1` [Example 14, 1-(3-Chloro-4-fluorophenyl)-4,5-difluoro-2-[4-(methylsulfonyl)phenyl]benzene], 172.2 to 172.5 °C.
With `Cc1cc(-c2cc(F)c(F)cc2-c2ccc(S(N)(=O)=O)cc2)ccc1Cl` [Example 36, 4-[2-(4-Chloro-3-methylphenyl)-4,5-difluorophenyl]benzenesulfonamide] the figure was 141.5 to 142.8 °C; with `CS(=O)(=O)c1ccc(-c2cc(F)c(F)cc2-c2ccc(F)cc2)cc1` [Example 11, 1,2-Difluoro-4-(4-fluorophenyl)-5-[4-(methylsulfonyl)phenyl]benzene], 172.8 to 173.5 °C.
With `NS(=O)(=O)c1ccc(-c2ccccc2-c2ccc(F)cc2)cc1` [Example 2, 4-[2-(4-Fluorophenyl)phenyl]benzenesulfonamide] the figure was 187.3 to 188.2 °C; with `Cc1cc(-c2cc(F)c(F)cc2-c2ccc(S(C)(=O)=O)cc2)ccc1F` [Example 31, 1,2-Difluoro-4-(4-fluoro-3-methylphenyl)-5-[4-(methylsulfonyl)phenyl]benzene], 167.2 to 167.5 °C; with `COc1ccc(-c2cc(F)c(F)cc2-c2ccc(S(C)(=O)=O)cc2)cc1F` [Example 19, 1,2-Difluoro-4-(3-fluoro-4-methoxyphenyl)-5-[4-(methylsulfonyl)phenyl]benzene], 159.2 to 159.7 °C.
Take `NS(=O)(=O)c1ccc(-c2cc(F)c(F)cc2-c2ccc(F)cc2)cc1` [Example 13, 4-[3,4-Difluoro-6-(4-fluorophenyl)phenyl]benzenesulfonamide]: the melting point fell in the range of 190.2 to 191.5 °C.
For `COc1ccc(-c2ccccc2-c2ccc(S(C)(=O)=O)cc2)cc1Cl` [Example 5, 2-Chloro-1-methoxy-4-[2-[4-(methylsulfonyl)phenyl]phenyl]benzene], the melting point is 161.5 to 162.3 °C.
The result for `CS(=O)(=O)c1ccc(-c2ccccc2-c2ccc(Cl)cc2)cc1` [Example 8, 1-(4-Chlorophenyl)-2-[4-(methylsulfonyl)phenyl]benzene] reads 180.2 to 180.6 °C; that for `Cc1ccc(-c2cc(F)c(F)cc2-c2ccc(S(N)(=O)=O)cc2)cc1Cl` [Example 29, 4-[2-(3-Chloro-4-methylphenyl)-4,5-difluorophenyl]benzenesulfonamide], 139 to 140 °C.
The result for `COc1ccc(-c2cc(F)c(F)cc2-c2ccc(S(N)(=O)=O)cc2)cc1OC` [Example 42, 4-[4,5-Difluoro-2-(3,4-dimethoxyphenyl)phenyl]benzenesulfonamide] reads 157 to 158 °C; that for `CS(=O)(=O)c1ccc(-c2cc3c(cc2-c2ccc(F)cc2)OCO3)cc1` [Example 17, 5-(4-Fluorophenyl)-6-[4-(methylsulfonyl)phenyl]-1,3-benzodioxole], 173 to 174 °C.
With `CN(C)c1ccc(-c2cc(F)c(F)cc2-c2ccc(S(C)(=O)=O)cc2)cc1Cl` [Example 28, 2-Chloro-4-[4,5-difluoro-2-[4-(methylsulfonyl)phenyl]phenyl]-N,N-dimethylbenzenamine] the figure was 129 to 130 °C.
Compound `NS(=O)(=O)c1ccc(-c2ccccc2-c2ccc(C(F)(F)F)cc2)cc1` [Example 9, 4-[2-[4-(Trifluoromethyl)phenyl]phenyl]benzenesulfonamide] registered a melting point of 187.5 to 187.8 °C.
The result for `COc1ccc(-c2cc(F)c(F)cc2-c2ccc(S(C)(=O)=O)cc2)cc1Cl` [Example 18, 1-(3-Chloro-4-methoxyphenyl)-4,5-difluoro-2-[4-(methylsulfonyl)phenyl]benzene] reads 147.5 to 148.5 °C; that for `COc1ccc(-c2cc(F)c(F)cc2-c2ccc(S(N)(=O)=O)cc2)cc1Cl` [Example 20, 4-[2-(3-Chloro-4-methoxyphenyl)-4,5-difluorophenyl]benzenesulfonamide], 70 °C (dec.); that for `NS(=O)(=O)c1ccc(-c2cc(F)c(F)cc2-c2ccc3c(c2)OCCO3)cc1` [Example 43, 4-[2-(2,3-Dihydro-1,4-benzodioxin-6-yl)-4,5-difluorophenyl]benzenesulfonamide], 107 to 108 °C.
Turning to `Cc1ccc(-c2cc(F)c(F)cc2-c2ccc(S(C)(=O)=O)cc2)cc1C` [Example 33, 1,2-Difluoro-4-(3,4-dimethylphenyl)-5-[4-(methylsulfonyl)phenyl]benzene], the melting point is 125.1 to 125.8 °C.
With `COc1ccc(-c2ccccc2-c2ccc(S(N)(=O)=O)cc2)cc1Cl` [Example 7, 4-[2-(3-Chloro-4-methoxyphenyl)phenyl]benzenesulfonamide] the figure was 179.5 to 180.2 °C; with `COc1ccc(-c2cc(F)c(F)cc2-c2ccc(S(N)(=O)=O)cc2)cc1F` [Example 21, 4-[4,5-Difluoro-2-(3-fluoro-4-methoxyphenyl)phenyl]benzenesulfonamide], 132.2 to 132.8 °C.
Consider `COc1ccc(-c2ccccc2-c2ccc(S(C)(=O)=O)cc2)cc1F` [Example 4, 2-Fluoro-1-methoxy-4-[2-[4-(methylsulfonyl)phenyl]phenyl]benzene], for which the melting point lay in the range of 136.2 to 136.6 °C.
With `CS(=O)(=O)c1ccc(-c2cc(F)c(F)cc2-c2ccc3c(c2)OCCO3)cc1` [Example 41], the melting point was 82 to 83 °C.
